Data taken from ChEMBL document CHEMBL4346735, “Discovery and pharmacological evaluation of indole derivatives as potent and selective RORγt inverse agonist for multiple autoimmune conditions” (Bioorg Med Chem Lett, 2019).
Converted amounts (≈) assume the structure as drawn. The source made the active and inactive calls. The rule behind the calls is not given here.

Key:
[1] = Drug metabolism in human pooled liver microsomes assessed as oxidation metabolic rate at 1 uM preincubated for 5 mins followed by NADPH addition after 30 mins by LC-MS/MS analysis; assay type: ADME, Microsome; conditions: 0.5 h
[2] = Solubility of the compound at pH 2.1; conditions: buffer
Cytochrome P450 3A4 [3] = biological target: T1, Cytochrome P450 3A4 (Homo sapiens, UniProt P08684); assay: Inhibition of CYP3A4 in human liver microsomes using midazolam as substrate preincubated for 5 mins followed by NADPH addition measured after 10 mins by LC-MS/MS analysis
[4] = biological target: T2, Nuclear receptor ROR-gamma (Homo sapiens, UniProt P51449); assay: Transactivation of recombinant GAL4-DBD fused RORgammat LBD (unknown origin) expressed in HEK293T cells incubated for 18 to 24 hrs by dual-Glo luciferase assay; assay type: cell-based
T2 sequence (P51449 whole entry): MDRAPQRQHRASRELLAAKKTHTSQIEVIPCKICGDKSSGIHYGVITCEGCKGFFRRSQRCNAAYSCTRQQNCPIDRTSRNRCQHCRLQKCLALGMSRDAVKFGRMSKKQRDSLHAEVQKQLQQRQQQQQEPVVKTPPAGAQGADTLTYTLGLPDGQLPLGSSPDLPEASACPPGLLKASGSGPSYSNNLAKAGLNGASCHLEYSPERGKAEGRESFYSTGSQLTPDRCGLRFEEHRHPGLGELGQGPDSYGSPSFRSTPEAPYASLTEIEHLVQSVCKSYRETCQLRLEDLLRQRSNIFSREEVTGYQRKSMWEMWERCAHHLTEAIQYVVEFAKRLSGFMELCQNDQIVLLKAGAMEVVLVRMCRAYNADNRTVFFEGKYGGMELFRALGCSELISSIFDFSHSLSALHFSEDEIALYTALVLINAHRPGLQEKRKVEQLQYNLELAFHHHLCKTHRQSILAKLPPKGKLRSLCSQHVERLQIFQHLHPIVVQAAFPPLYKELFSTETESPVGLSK

[5] = Solubility of the compound at pH 4; conditions: buffer
[6] = Drug metabolism in mouse liver microsomes assessed as oxidation metabolic rate at 1 uM preincubated for 5 mins followed by NADPH addition after 30 mins by LC-MS/MS analysis; assay type: ADME, Microsome; conditions: 0.5 h
Cytochrome P450 2C9 = Cytochrome P450 2C9 (Homo sapiens, UniProt P11712); assay: Inhibition of CYP2C9 in human liver microsomes using diclofenac as substrate preincubated for 5 mins followed by NADPH addition measured after 10 mins by LC-MS/MS analysis
[7] = Solubility of the compound at pH 7.4; conditions: buffer
[8] = Oral bioavailability in Balb/c mouse at 10 mg/kg administered via gavage by LC-MS/MS analysis; assay type: ADME, organism-based; conditions: in vivo
[9] = biological target: T3, Nuclear receptor ROR-gamma (Mus musculus, UniProt P51450); assay: Inverse agonist activity at RORgammat in mouse splenocytes derived naive T cells assessed as suppression of T cell differentiation to Th17 cells by measuring IL-17 secretion in presence of […]/anti-IFNgamma/TGFbeta/IL-6 for 6 days by ELISA; assay type: cell-based
T3 sequence (P51450 whole entry): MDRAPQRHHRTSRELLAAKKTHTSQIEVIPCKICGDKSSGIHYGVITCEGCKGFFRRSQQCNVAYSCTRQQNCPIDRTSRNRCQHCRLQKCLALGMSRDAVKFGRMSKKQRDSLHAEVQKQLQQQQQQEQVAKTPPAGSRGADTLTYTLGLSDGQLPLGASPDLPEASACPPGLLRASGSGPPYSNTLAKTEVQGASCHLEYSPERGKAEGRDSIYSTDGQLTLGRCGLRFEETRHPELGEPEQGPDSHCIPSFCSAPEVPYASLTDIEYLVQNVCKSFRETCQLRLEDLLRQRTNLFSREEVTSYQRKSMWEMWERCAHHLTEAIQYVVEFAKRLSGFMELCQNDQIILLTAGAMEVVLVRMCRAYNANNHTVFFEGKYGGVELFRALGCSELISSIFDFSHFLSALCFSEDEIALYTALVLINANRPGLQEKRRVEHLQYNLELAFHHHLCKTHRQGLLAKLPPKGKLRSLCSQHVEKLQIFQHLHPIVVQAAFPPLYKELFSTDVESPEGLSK

Cytochrome P450 3A4 [10] = biological target: T1, Cytochrome P450 3A4; assay: Inhibition of CYP3A4 in human liver microsomes using testosterone as substrate preincubated for 5 mins followed by NADPH addition measured after 10 mins by LC-MS/MS analysis
[11] = Metabolic stability in human liver microsomes assessed as parent compound remaining at 1 uM preincubated for 5 mins followed by NADPH addition after 30 mins by LC-MS/MS analysis; assay type: ADME, Microsome; conditions: read-out: Stability
Cytochrome P450 1A2 = biological target: T4, Cytochrome P450 1A2 (Homo sapiens, UniProt P05177); assay: Inhibition of CYP1A2 in human liver microsomes using phenacetin as substrate preincubated for 5 mins followed by NADPH addition measured after 10 mins by LC-MS/MS analysis
T4 sequence (P05177 whole entry): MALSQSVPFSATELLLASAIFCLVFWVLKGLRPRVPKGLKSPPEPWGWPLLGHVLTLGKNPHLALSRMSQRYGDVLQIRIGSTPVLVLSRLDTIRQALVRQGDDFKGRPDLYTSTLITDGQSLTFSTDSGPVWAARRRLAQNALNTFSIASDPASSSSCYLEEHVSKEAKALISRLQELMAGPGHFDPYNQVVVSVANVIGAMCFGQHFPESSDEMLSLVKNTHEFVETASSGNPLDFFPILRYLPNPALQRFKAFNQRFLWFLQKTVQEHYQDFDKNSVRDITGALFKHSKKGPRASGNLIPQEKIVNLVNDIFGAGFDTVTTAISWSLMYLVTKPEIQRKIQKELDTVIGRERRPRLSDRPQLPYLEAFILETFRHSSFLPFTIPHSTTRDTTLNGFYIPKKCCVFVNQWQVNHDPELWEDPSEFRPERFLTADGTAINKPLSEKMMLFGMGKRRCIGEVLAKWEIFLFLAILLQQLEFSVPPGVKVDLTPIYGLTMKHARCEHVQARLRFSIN

[12] = AUC (0 to t) in Balb/c mouse at 3 mg/kg, iv administered as single dose by LC-MS/MS analysis; assay type: ADME, organism-based; conditions: in vivo
[13] = Metabolic stability in rat liver microsomes assessed as parent compound remaining at 1 uM preincubated for 5 mins followed by NADPH addition after 30 mins by LC-MS/MS analysis; assay type: ADME, Microsome; conditions: read-out: Stability
[14] = Half life in Balb/c mouse at 3 mg/kg, iv administered as single dose by LC-MS/MS analysis; assay type: ADME, organism-based; conditions: in vivo
[15] = Metabolic stability in mouse liver microsomes assessed as parent compound remaining at 1 uM preincubated for 5 mins followed by NADPH addition after 30 mins by LC-MS/MS analysis; assay type: ADME, Microsome; conditions: read-out: Stability
[16] = Drug metabolism in rat liver microsomes assessed as oxidation metabolic rate at 1 uM preincubated for 5 mins followed by NADPH addition after 30 mins by LC-MS/MS analysis; assay type: ADME, Microsome; conditions: 0.5 h
Cytochrome P450 2C19 = Cytochrome P450 2C19 (Homo sapiens, UniProt P33261); assay: Inhibition of CYP2C19 in human liver microsomes using (S)-mephenytoin as substrate preincubated for 5 mins followed by NADPH addition measured after 40 mins by LC-MS/MS analysis
[17] = biological target: T2, Nuclear receptor ROR-gamma; assay: Inverse agonist activity at GST-tagged RORgammat LBD (unknown origin) using fluorescein-D22 co-activator peptide as substrate incubated for 1 hr by TR-FRET assay
[18] = Clearance in Balb/c mouse at 3 mg/kg, iv administered as single dose by LC-MS/MS analysis; assay type: ADME, organism-based; conditions: in vivo
Cytochrome P450 2D6 = Cytochrome P450 2D6 (Homo sapiens, UniProt P10635); assay: Inhibition of CYP2D6 in human liver microsomes using dextromethorphan as substrate preincubated for 5 mins followed by NADPH addition measured after 10 mins by LC-MS/MS analysis
Mus musculus [19] = assay: Protection against imiquimod-induced skin inflammation in BALB/c mouse psoriasis model assessed as decrease in scaling administered topically at 25 mg qd treated for 1 hr before IMQ application measured at day 5; assay type: functional, organism-based
Mus musculus [20] = assay: Protection against imiquimod-induced skin inflammation in BALB/c mouse psoriasis model assessed as decrease in ear thickness administered topically at 25 mg qd treated for 1 hr before IMQ application measured at day 5; assay type: functional, organism-based
Mus musculus [21] = assay: Immunosuppressive activity in MOG (35 to 55 residues)/pertussis toxin-induced experimental allergic encephalomyelitis C57BL/6J mouse model assessed as reduction in disease severity at 3 to 30 mg/kg, po bid measured at days 15-19; assay type: functional, organism-based
Mus musculus [22] = species on record: Mus musculus; assay: Effect on non-RORgammat-dependent il6 gene expression in BALB/c mouse splenocytes measured after 24 hrs in presence of anti-CD3/anti-CD28; assay type: functional
Mus musculus [23] = assay: Immunosuppressive activity in MOG (35 to 55 residues)/pertussis toxin-induced experimental allergic encephalomyelitis C57BL/6J mouse model assessed as IFN-gamma production of CNS infiltrating CD4+ Th1 cells at 3 to 30 mg/kg, po bid by intracellular staining method; assay type: functional, organism-based
Mus musculus [24] = species on record: Mus musculus; assay: Effect on non-RORgammat-dependent TNFA gene expression in BALB/c mouse splenocytes measured after 24 hrs in presence of anti-CD3/anti-CD28; assay type: functional
Mus musculus [25] = species on record: Mus musculus; assay: Effect on non-RORgammat-dependent ll4 gene expression in BALB/c mouse splenocytes measured after 24 hrs in presence of anti-CD3/anti-CD28; assay type: functional
Mus musculus [26] = species on record: Mus musculus; assay: Effect on non-RORgammat-dependent IFNG gene expression in BALB/c mouse splenocytes measured after 24 hrs in presence of anti-CD3/anti-CD28; assay type: functional
[27] = biological target: T5, Nuclear receptor ROR-gamma (Mus musculus) (UniProt P51450); assay: Transrepression of RORgammat in Balb/c mouse splenocytes assessed as inhibition of anti-CD3/anti-CD28 stimulated IL-17 gene expression at 3 uM measured after 24 hrs in presence of anti-CD3/anti-CD28; assay type: cell-based
T5 sequence (whole entry): T3 sequence (P51450 whole entry)

Mus musculus [28] = assay: Immunosuppressive activity in MOG (35 to 55 residues)/pertussis toxin-induced experimental allergic encephalomyelitis C57BL/6J mouse model assessed as delay in disease onset at 3 to 30 mg/kg, po bid; assay type: functional, organism-based
Mus musculus [29] = assay: Immunosuppressive activity in MOG (35 to 55 residues)/pertussis toxin-induced experimental allergic encephalomyelitis C57BL/6J mouse model assessed as decrease in ratio of Th17:Th1 at 3 to 30 mg/kg, po bid by intracellular staining method; assay type: functional, organism-based
[30] = biological target: T5, Nuclear receptor ROR-gamma (Mus musculus); assay: Transrepression of RORgammat in Balb/c mouse splenocytes assessed as inhibition of anti-CD3/anti-CD28 stimulated IL-17 gene expression at 30 uM measured after 24 hrs in presence of anti-CD3/anti-CD28; assay type: cell-based
[31] = biological target: T5, Nuclear receptor ROR-gamma (Mus musculus); assay: Transrepression of RORgammat in Balb/c mouse splenocytes assessed as inhibition of anti-CD3/anti-CD28 stimulated IL-17 gene expression at 0.3 uM measured after 24 hrs in presence of anti-CD3/anti-CD28; assay type: cell-based

T1 sequence (P08684 whole entry, the tested form may be a part): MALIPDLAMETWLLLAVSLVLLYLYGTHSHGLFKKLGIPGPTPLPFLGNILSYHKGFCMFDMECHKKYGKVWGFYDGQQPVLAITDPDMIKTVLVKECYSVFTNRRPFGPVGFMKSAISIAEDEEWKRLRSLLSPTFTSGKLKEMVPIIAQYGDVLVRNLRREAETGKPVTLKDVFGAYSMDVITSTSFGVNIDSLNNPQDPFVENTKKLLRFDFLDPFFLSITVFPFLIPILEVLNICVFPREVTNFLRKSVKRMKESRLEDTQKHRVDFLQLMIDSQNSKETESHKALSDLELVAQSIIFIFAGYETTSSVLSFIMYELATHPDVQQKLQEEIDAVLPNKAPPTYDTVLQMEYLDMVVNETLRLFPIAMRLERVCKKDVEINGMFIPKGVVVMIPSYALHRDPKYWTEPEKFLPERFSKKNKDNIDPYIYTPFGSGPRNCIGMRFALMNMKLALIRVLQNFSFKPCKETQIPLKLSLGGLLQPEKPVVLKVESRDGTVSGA
Cytochrome P450 2D6, sequence (P10635 whole entry): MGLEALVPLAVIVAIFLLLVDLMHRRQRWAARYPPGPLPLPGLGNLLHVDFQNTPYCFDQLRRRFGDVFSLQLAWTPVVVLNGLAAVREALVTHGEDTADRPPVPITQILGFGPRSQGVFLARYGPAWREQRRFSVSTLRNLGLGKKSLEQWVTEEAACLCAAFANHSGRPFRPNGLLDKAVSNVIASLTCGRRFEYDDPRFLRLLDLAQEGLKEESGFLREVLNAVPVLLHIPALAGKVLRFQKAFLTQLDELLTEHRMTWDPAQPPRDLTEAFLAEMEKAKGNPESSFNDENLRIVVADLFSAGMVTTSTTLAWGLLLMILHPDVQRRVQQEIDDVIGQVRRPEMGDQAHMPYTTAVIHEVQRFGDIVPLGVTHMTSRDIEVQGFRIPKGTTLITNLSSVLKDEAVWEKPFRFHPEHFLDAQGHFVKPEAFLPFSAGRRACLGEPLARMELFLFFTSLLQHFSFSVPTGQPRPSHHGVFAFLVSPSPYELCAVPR
Cytochrome P450 2C19, sequence (P33261 whole entry, the tested form may be a part): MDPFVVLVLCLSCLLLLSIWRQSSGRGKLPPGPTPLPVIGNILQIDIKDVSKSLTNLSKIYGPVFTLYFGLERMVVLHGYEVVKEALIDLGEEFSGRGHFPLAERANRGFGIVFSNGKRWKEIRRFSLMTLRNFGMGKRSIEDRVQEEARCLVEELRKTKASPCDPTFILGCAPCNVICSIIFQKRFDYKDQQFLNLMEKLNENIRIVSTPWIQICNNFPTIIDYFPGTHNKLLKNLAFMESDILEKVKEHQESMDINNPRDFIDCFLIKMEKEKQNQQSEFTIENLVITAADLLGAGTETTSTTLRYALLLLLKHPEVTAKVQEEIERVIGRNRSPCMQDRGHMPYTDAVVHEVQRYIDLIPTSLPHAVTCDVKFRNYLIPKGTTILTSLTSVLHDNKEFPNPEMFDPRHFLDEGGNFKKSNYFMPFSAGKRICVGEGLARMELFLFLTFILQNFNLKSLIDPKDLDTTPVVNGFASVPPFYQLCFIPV
Cytochrome P450 2C9, sequence (P11712 whole entry): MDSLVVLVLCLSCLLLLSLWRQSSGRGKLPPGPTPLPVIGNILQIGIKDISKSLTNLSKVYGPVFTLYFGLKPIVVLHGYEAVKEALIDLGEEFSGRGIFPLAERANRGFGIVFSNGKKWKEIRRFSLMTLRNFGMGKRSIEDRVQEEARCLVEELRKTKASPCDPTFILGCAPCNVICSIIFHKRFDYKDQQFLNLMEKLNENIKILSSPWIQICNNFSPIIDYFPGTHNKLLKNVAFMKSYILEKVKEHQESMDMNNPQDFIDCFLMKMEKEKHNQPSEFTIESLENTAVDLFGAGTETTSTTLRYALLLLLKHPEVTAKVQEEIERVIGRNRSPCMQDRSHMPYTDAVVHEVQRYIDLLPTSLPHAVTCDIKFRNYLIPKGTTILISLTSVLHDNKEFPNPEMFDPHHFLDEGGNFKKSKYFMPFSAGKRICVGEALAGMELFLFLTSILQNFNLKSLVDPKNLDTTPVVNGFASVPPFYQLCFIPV

In the case of `O=C(O)c1ccc(-n2cc(C(=O)c3c(Cl)cccc3Cl)c3ccccc32)cc1`, the Drug metabolism [1] is reported as < 0.04 nmol/min/mg, the solubility [2] is reported as < 1 µM and the IC50 (Cytochrome P450 3A4 [3]) is reported as > 100 µM. For the same molecule, the IC50 [4] was 0.028 µM, the solubility [5] was < 1 µM and the Drug metabolism [6] was < 0.04 nmol/min/mg. The IC50 (Cytochrome P450 2C9) was 3.8 µM, the solubility [7] was 19 µM (≈ 7.79 µg/mL) and the bioavailability [8] was 53%. For the same molecule, the IC50 [9] was 0.058 µM, the IC50 (Cytochrome P450 3A4 [10]) was 15.5 µM and the remaining at 0.5 h, 1 µM [11] was 99%. For the same molecule, the IC50 (Cytochrome P450 1A2) was 29.9 µM, the AUC(0-t) [12] was 12.5 µM·h and the remaining at 0.5 h, 1 µM [13] was 76%. The half-life [14] was 4.6 h, the remaining at 0.5 h, 1 µM [15] was 99% and the Drug metabolism [16] was 0.08 nmol/min/mg. The IC50 (Cytochrome P450 2C19) was 67.6 µM, the IC50 [17] was 0.0016 µM and the clearance [18] was 17 mL/min/kg. The IC50 (Cytochrome P450 2D6) was > 100 µM.

In the case of `C[C@H]1C[C@H]2[C@@H]3CCC4=CC(=O)C=C[C@]4(C)[C@@]3(F)[C@@H](O)C[C@]2(C)[C@@]1(O)C(=O)CO`, the Activity (Mus musculus [19]) is reported as “Active” and the Activity (Mus musculus [20]) is reported as “Active”.

With `O=C(O)c1ccc(-n2cc(C(=O)c3c(Cl)cccc3Cl)c3cccc(F)c32)cc1` the Activity (Mus musculus [21]) was “Active”, the Activity (Mus musculus [22]) was “inactive” and the Activity (Mus musculus [23]) was “Active”. The Activity (Mus musculus [24]) was “inactive”, the Activity (Mus musculus [25]) was “inactive” and the Activity (Mus musculus [26]) was “inactive”. For the same molecule, the inhibition [27] was 52%, the Activity (Mus musculus [28]) was “Active” and the inhibition (Mus musculus [29]) was “Active”. The inhibition [30] was 76% and the inhibition [31] was 2%.
